Patent US5659041A, “Hydrazino-type radionuclide chelators having an N3 S configuration” (Resolution Pharmaceuticals, Inc., priority 1994, dated 1997)
Numbered stars: 1 amine (or outer) side, 2 acyl side, 3 side chain; on linkers, the order of the positions; unused ones are H or OH. Square brackets hold non-standard residues; d marks the D form. Peptide text beside a SMILES is read from it. X2 = CN(N[*:1])c1ccc(C(=O)[*:2])cn1; X1 = O=C(CSCN[*:1])[*:2]

Experiments:
[1] = test system: "Tuftsin" receptors on leukocytes; assay: Binding of TKPPR peptide to Tuftsin receptors on leukocytes
[2] = In vivo distribution of 99mTc labeled chelators within rats; set-up: species or system male Wistar rats; conditions: rat, i.v. tail vein
Experimental: Distribution within rats of selected chelators and a reference chelator was determined using established protocols. Briefly, male Wistar rats (Charles River, 200 g) were anesthetized with somnitol (40 to 50 mg/kg) and 200 μL of the labeled chelator (ie. 200 μCi) was injected intravenously via the tail vein. Serial whole-body scintigrams were acquired for first 10 minutes. After further images were obtained at 60 and 120 minutes, the rat was killed with anesthesia and samples of organs (blood, heart, lung, liver, spleen, kidney, muscle, GI tract) were weighed and counted in either a well-type gamma counter or in a gamma dose calibrator. Dose calculations were made based On the assumption that rats weighed 200 g and that the blood volume constituted 8% body weight. All results were corrected for the residual dose in the tail.

[3] = Extent of complexation of 99mTc with chelators (radioactivity of eluted C-18 Sep-Pak fractions); format: physicochemical; conditions: for Chelator (EtOH-saline eluate), percent of total / Chelator (EtOH-saline eluate), radioactivity / TcO2, percent of total / TcO2, radioactivity / TcO4- (HCl eluate), percent of total / TcO4- (HCl eluate), radioactivity of eluted fraction: Example 2: SnCl2, pH 6, Example 4: sodium dithionite, pH 12-13, 75° C.
Experimental: The chelator N-(S-benzoylmercaptoacetyl)-glycyl-2-pyridylhydrazide (example 2, 1 mg) was dissolved in EtOH-water and hydrolyzed by heating with NaOH, after which the reaction mixture was neutralized with acetic acid to pH 6. 350 μg hydrolyzed chelator was reacted with 103 MBq TcO4^- and 10 μg SnCl2 at room temperature. […] To achieve adequate separation of the chelator, the solution was then loaded on a C-18 SepLPak column which was eluted with dilute HCI to remove Tc04-. Subsequent elution with 1:1 EtOH-saline removed the chelator while Tc02 remained on the column.
Another chelator was similarly labeled. Particularly, 300 μg of the hydrolyzed chelator N-(S-benzoylmercaptoacetyl)-glycyl-3-(6-chloropyridazyl)-hydrazide (example 4) was adjusted to pH 12-13 and reduced with 100 μg of sodium dithionite for 10 minutes at 75° C. The resulting mixture was then loaded on a C-18 Sep-Pak column and eluted with dilute HCI followed by EtOH-saline. The extent of complexation of ^99m Tc with chelators was measured by radioactivity of the eluted fractions; results are shown in the table below.

[4] = Labeling of chelator-conjugate with 99mTc (HPLC radioactivity of fractions); format: physicochemical; conditions: pertechnetate, stannous gluconate, boiling water bath 12 minutes
Experimental: The chelator-conjugate of example 11 (200 μL, 1 mg/mL saline) was injected into a 3 mL vacutainer with 100 μL pertechnetate (10 mCi) and 100 μL stannous gluconate (50 μg stannous chloride and 1 mg sodium gluconate). The tube was placed in a boiling water bath for 12 minutes and then filtered through a Watman PVDF syringe filter to collect the labeled conjugate solution which was further diluted with saline to prepare an injectable solution (2 Mbq/mL). The chelator-conjugate was isolated by HPLC (Beckman) from a (20 μL) sample (before dilution) to determine the labeling yield by measuring radioactivity of the fractions. 70.8%, 5.1% and 15.0% of the label was found in each of three fractions eluted for a 90.9% total labeling yield.

[5] = 200 μCi, organs counted after 120 minutes images

Question: Which “binding to "Tuftsin" receptors on leukocytes” value [1] does the source give for TKPPR here?
Answer: binds particularly well

Question: What does the source list for `COC(=O)CC[C@H](NC(=O)CSC(=O)c1ccccc1)C(=O)NNc1ccc(Cl)nn1` [Example 5, N-(S-benzoylmercaptoacetyl)-L-glutamyl-(gamma-methylester)-3-(6-chloropyridazyl)-hydrazide]?
Answer: dose localized in the GI tract [2, 5]: 55%; dose remaining in the blood [2, 5]: about 10%

Question: For `COC(=O)CC[C@H](NC(=O)CSC(=O)c1ccccc1)C(=O)NNc1ccccn1` [Example 3, No(S-benzoylmercaptoacetyl)-L-glutamyl-(gamma-methyl ester)-2-pyridylhydrazide], which “accumulation in the kidney” value ([2]; 200 μCi, compared with the other chelators) is on record?
Answer: greatest accumulation in the kidney

Question: For `O=C(CNC(=O)CSC(=O)c1ccccc1)NCc1ccccn1` [N-(S-benzoylmercaptoacetyl)-glycyl-2-pyridylmethylamide, reference compound], which “retention in the blood pool” value ([2]; reference chelator lacking hydrazide) is on record?
Answer: extensively retained in the blood pool

Question: For `O=C(CSC(=O)c1ccccc1)NCC(=O)NNc1ccccn1` [Example 2, N-(S-benzoylmercaptoacetyl)-glycyl-2-pyridylhydrazide], which “Chelator (EtOH-saline eluate), percent of total” value [3] is on record?
Answer: 68%

Question: And the “Chelator (EtOH-saline eluate), radioactivity” value [3]?
Answer: 27.6 MBq

Question: And the “TcO2, percent of total” value [3]?
Answer: 31%

Question: And the “TcO2, radioactivity” value [3]?
Answer: 12.5 MBq

Question: What about the “TcO4- (HCl eluate), percent of total” value [3] of the same compound?
Answer: 1%

Question: And the “TcO4- (HCl eluate), radioactivity of eluted fraction” value [3]?
Answer: 0.15 MBq

Question: And the “activity present as TcO2” value ([3]; SnCl2 at room temperature, pH 6, did not change after heating 10 minutes at 80° C.)?
Answer: Approximately half activity was present as TcO2

Question: What about the “dose in the liver and GI tract” value [2, 5] of the same compound?
Answer: about 60%

Question: What about the “dose remaining in the blood” value [2, 5] of the same compound?
Answer: about 6%

Question: Which “Chelator (EtOH-saline eluate), percent of total” value [3] does the source give for `O=C(CSC(=O)c1ccccc1)NCC(=O)NNc1ccc(Cl)nn1` [Example 4, N-(S-benzoylmercaptoacetyl)-glycyl-3-(6-chloropyridazyl)-hydrazide] here?
Answer: 78%

Question: What about the “Chelator (EtOH-saline eluate), radioactivity” value [3] of the same compound?
Answer: 14.19 MBq

Question: What about the “TcO2, percent of total” value [3] of the same compound?
Answer: 14%

Question: What about the “TcO2, radioactivity” value [3] of the same compound?
Answer: 2.55 MBq

Question: What about the “TcO4- (HCl eluate), percent of total” value [3] of the same compound?
Answer: 8%

Question: What about the “TcO4- (HCl eluate), radioactivity of eluted fraction” value [3] of the same compound?
Answer: 1.38 MBq

Question: What about the “clearance from the blood (and other tissues)” value ([2]; 200 μCi) of the same compound?
Answer: fastest clearance from the blood and other tissues

Question: And the route of elimination ([2]; 200 μCi)?
Answer: mainly eliminated through the liver and GI tract

Question: And the “dose in the liver and GI tract” value [2, 5]?
Answer: About 70%

Question: Which total labeling yield [4] does the source give for `CC(=O)NCSCC(=O)N[C@@H](CO)C(=O)NN(C)c1ccc(C(=O)NCC(=O)N[C@H](C(=O)N[C@@H](CCCCN)C(=O)N2CCC[C@H]2C(=O)N2CCC[C@H]2C(=O)N[C@@H](CCCNC(=N)N)C(=O)O)[C@@H](C)O)cn1` [Example 11, S-Acm-Mercaptoacetyl-Ser-N-methylhydrazino nicotinic acid- Gly--Thr--Lys--Pro--Pro--Arg] (Ac-[X1]S[X2]GTKPPR-OH) here?
Answer: 90.9%
